The target of assay [1] is T1, KEAP1 C151 (Homo sapiens, UniProt Q14145).
T1 construct: treating 500 μg of cell lysate generated from MDA-MB-468 breast cancer cells with DMSO or compound; endogenous in cells; host or cells: MDA-MB-468 breast cancer cell lysate
As to the kind of experiment: Nrf2 TMT measurement: in vitro TE50 for KEAP1 C151 (IA-DTB competition, targeted TMT mass spectrometry) in MDA-MB-468 cell lysate. As to conditions: in vitro target engagement of KEAP1 C151, targeted TMT, read-out: KEAP1_C151 TE50. In kind it is binding. An outline of the steps:
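MDA-MB-468 lysate (500 μg) treated with compound for 1 h at room temperature, then 200 μM IA-DTB for 1 h. Labeled peptides streptavidin-enriched after trypsin digest, TMT-labeled and quantified by targeted MS3 on the KEAP1 C151 peptide. IC50 from dose-response curve fitting.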

For assay [2], the system named is Nrf2. Put plainly: Nrf2 antagonism assay: ARE luciferase reporter in KYSE-70 cells. Format: cell-based. The note with it: positive Imax corresponds to Nrf2 antagonism; for Emax: Homo sapiens, KYSE-70, KYSE-70 cells, read-out: KYSE70 Cellular ARE Luciferase Imax (%). In outline: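 KYSE-70 esophageal squamous carcinoma cells carrying Nrf2 W24C (constitutively Nrf2-high) with an ARE-driven luciferase reporter. Loss of luciferase signal reflects Nrf2 antagonism via KEAP1 C151 engagement. IC50 and Imax come from dose-response curves; positive Imax means antagonism.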
On the technique in general: In a reporter assay the amount or activity of a reporter protein is the signal.

T1 sequence (Q14145 whole entry): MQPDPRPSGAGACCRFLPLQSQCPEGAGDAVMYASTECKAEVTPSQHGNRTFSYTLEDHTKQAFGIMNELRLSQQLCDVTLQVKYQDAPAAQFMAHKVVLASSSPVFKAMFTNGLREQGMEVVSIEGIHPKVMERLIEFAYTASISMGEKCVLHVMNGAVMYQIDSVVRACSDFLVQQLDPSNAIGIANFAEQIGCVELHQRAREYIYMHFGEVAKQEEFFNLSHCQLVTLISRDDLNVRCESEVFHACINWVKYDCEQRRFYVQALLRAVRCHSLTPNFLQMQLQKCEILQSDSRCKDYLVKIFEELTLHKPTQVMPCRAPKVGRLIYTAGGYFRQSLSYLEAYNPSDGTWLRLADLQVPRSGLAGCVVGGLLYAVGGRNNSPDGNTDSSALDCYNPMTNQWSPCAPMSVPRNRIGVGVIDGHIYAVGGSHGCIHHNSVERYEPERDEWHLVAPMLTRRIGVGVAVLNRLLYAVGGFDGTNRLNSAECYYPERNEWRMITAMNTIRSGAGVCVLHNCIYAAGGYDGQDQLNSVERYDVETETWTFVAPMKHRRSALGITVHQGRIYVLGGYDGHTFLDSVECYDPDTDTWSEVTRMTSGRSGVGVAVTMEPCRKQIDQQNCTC

For `C=CC(=O)N1CCOC[C@H]1c1cc(Cl)cc(-c2cncc(N)n2)c1` (single isomer, unassigned) [Compound 250], in assay [1], the IC50 is 36 nM. The Emax in assay [2] is 92%.

Regarding `C=CC(=O)N1CCN(S(C)(=O)=O)C[C@H]1c1cc(Cl)cc(-c2ncnc(N)n2)c1` (single isomer, unassigned) [Compound 123], in assay [1], the IC50 came out at 13 nM. Moreover, the Emax in assay [2] worked out at 73%.

As to `C=CC(=O)N1CCOC[C@H]1c1cc(Cl)cc(-c2ncn(CC(N)=O)n2)c1` (single isomer, unassigned) [Compound 62], the IC50 in assay [1] amounted to 220 nM. In assay [2], the Emax was found to be 55%.

Take `C=CC(=O)N1CCOC[C@H]1c1cc(Cl)cc(-c2cnc(OC)c(N)n2)c1` (single isomer, unassigned) [Compound 259]: the IC50 in assay [1] stood at 140 nM. Moreover, the Emax in assay [2] amounted to 93%.

`C=CC(=O)N1CCN(C(C)=O)C[C@H]1c1cc(Cl)cc(-c2ccnc(N)n2)c1` (single isomer, unassigned) [Compound 81]: the IC50 in assay [1] came out at 12 nM. Besides, the Emax in assay [2] was determined as 85%.

Regarding `C=CC(=O)N1CCOCC1c1cc(Cl)nc(-c2cc(C(N)=O)ncn2)c1` (single isomer, unassigned) [Compound 125, 6-(4-(4-acryloylmorpholin-3-yl)-6-chloropyridin-2-yl)pyrimidine-4-carboxamide], the IC50 in assay [1] was < 6.4 nM. Besides, the Emax in assay [2] stood at 91%.

`C=CC(=O)N1CC2(CC2)OCC1c1cc(Cl)cc(-c2ccnc(N)n2)c1` (single isomer, unassigned) [Compound 84, 1-(6-(3-(2-aminopyrimidin-4-y1)-5-chlorophenyl)-4-oxa-7-azaspiro[2.5]octan-7-yl)prop-2-en-1-one]: the IC50 in assay [1] was 47 nM. In addition, in assay [2], the Emax worked out at 93%.

Take `C=CC(=O)N1[C@H](C)COC[C@H]1c1cc(Cl)cc(-c2cc(N)ncn2)c1` (single isomer, unassigned) [Compound 131]: the IC50 in assay [1] was determined as 300 nM. In addition, the Emax in assay [2] was 91%.

Regarding `C=CC(=O)N1CCOC[C@H]1c1cc(Cl)cc(-c2ccnc(N)c2)c1` (single isomer, unassigned) [Compound 136], the IC50 in assay [1] was 52 nM. Besides, the Emax in assay [2] stood at 81%.

In the case of `C=CC(=O)N1CCC(F)(F)CC1c1cc(Cl)cc(-c2ccnc(C)n2)c1` (single isomer, unassigned) [Compound 281, 1-(2-(3-chloro-5-(2-methylpyrimidin-4-yl)phenyl)-4,4-difluoropiperidin-1-yl)prop-2-en-1-on], in assay [1], the IC50 was determined as 61 nM. Also, the Emax in assay [2] was 84%.

With `C=CC(=O)N1CCOC[C@H]1c1cc(Cl)cc(-c2c[nH]c(N)n2)c1` [Compound 193, (R)-1-(3-(3-(2-amino-1H-imidazol-4-yl)-5-chlorophenyl)morpholino)prop-2-en-1-one], in assay [1], the IC50 stood at 97 nM. In assay [2], the Emax came out at 91%.

For `C=CC(=O)N1CCOC[C@H]1c1cc(Cl)cc(C2CNC(=S)N(C)C2)c1` (single isomer, unassigned) [Compound 226], the IC50 in assay [1] was found to be 200 nM. For the same molecule, in assay [2], the Emax stood at 85%.

For the molecule `C=CC(=O)N1CCOC[C@H]1c1cc(Cl)cc(-c2ncc(N)cn2)c1` (single isomer, unassigned) [Compound 92], in assay [1], the IC50 amounted to 23 nM. For the same molecule, the Emax in assay [2] stood at 94%.

Consider `C=CC(=O)N1CCOCC12COc1c(-c3ccnc(N)n3)cc(Cl)cc12` (single isomer, unassigned) [Compound 158, 1-(7-(2-aminopyrimidin-4-yl)-5-chloro-2H-spiro[benzofuran-3,3′-morpholino]-4′-yl)prop-2-en-1-one], for which, in assay [1], the IC50 was found to be 2720 nM. Besides, the Emax in assay [2] amounted to 71%.

In the case of `C=CC(=O)N1CCOC[C@H]1c1cc(Cl)cc(-c2nccc(NC(C)=O)n2)c1` (single isomer, unassigned) [Compound 256], the IC50 in assay [1] is 86 nM. In addition, the Emax in assay [2] is 63%.

Turning to `C=CC(=O)N1CCOC[C@H]1c1cc(Cl)cc(-c2nc(C)cc(C)n2)c1` (single isomer, unassigned) [Compound 93], in assay [1], the IC50 came to 40 nM. Further, the Emax in assay [2] is 91%.

For `C=CC(=O)N1CCOC[C@H]1c1cc(Cl)cc(-c2cccc(OC)n2)c1` (single isomer, unassigned) [Compound 100], the IC50 in assay [1] came out at 140 nM. For the same molecule, the Emax in assay [2] was 78%.

`C=CC(=O)N1CC(C)(C)OC[C@H]1c1cc(Cl)cc(-c2ccc(F)c(C(N)=O)c2)c1` (single isomer, unassigned) [Compound 61]: the IC50 in assay [1] is 51.3 nM. Besides, the Emax in assay [2] was 89%.

Turning to `C=CC(=O)N1CCOC[C@H]1c1cc(Cl)cc(C2CNC(=S)NC2)c1` (single isomer, unassigned) [Compound 233], in assay [1], the IC50 was 660 nM. Further, the Emax in assay [2] came to 83%.

Take `C=CC(=O)N1CCOC[C@H]1c1cc(Cl)cc(C2CNC(=O)NC2)c1` (single isomer, unassigned) [Compound 222]: in assay [1], the IC50 was 330 nM. Besides, the Emax in assay [2] is 85%.

Take `C=CC(=O)N1CCOC[C@H]1c1cc(Cl)cc(-c2ccc(F)c(C(N)=O)c2)c1` (single isomer, unassigned) [Compound 44]: the IC50 in assay [1] is 15.7 nM. Further, the Emax in assay [2] was 93%.

In the case of `C=CC(=O)N1CCS(=O)(=O)CC1c1cc(Cl)cc(-c2ncccn2)c1` (single isomer, unassigned) [Compound 31, 1-(3-(3-chloro-5-(pyrimidin-2-yl)phenyl)-1,1-dioxidothiomorpholino)prop-2-en-1-one], the IC50 in assay [1] was found to be 36 nM. For the same molecule, in assay [2], the Emax was 66%.

On to `C=CC(=O)N1CCS(=O)(=O)CC1c1cc(Cl)cc(-c2ncnc(N)n2)c1` (single isomer, unassigned) [Compound 206, 1-(3-(3-(4-amino-1,3,5-triazin-2-yl)-5-chlorophenyl)-1,1-dioxidothiomorpholino)prop-2-en-1-one], for which the IC50 in assay [1] turned out to be 520 nM. Moreover, in assay [2] (KYSE-70 cells), the “KYSE70 Cellular ARE Luciferase Imax (%)” value is 55%.

On to `C=CC(=O)N1CCOCC1c1cc(Cl)cc(-c2cc(C(N)=O)ccc2F)c1` (single isomer, unassigned) [Compound 60, 3′-(4-acryloylmorpholin-3-yl)-5′-chloro-6-fluoro-[1,1′-biphenyl]-3-carboxamide], for which the IC50 in assay [1] came out at 58 nM. Also, the Emax in assay [2] came to 70%.

With `C=CC(=O)N1CC2(CC2)OCC1c1cc(Cl)cc(-c2ccnc(C(N)=O)c2)c1` (single isomer, unassigned) [Compound 122, 4-(3-(7-acryloyl-4-oxa-7-azaspiro[2.5]octan-6-yl)-5-chlorophenyl)picolinamide], in assay [1], the IC50 worked out at 11 nM. The Emax in assay [2] came to 88%.

With `C=CC(=O)N1CC(C)(C)OC[C@H]1c1cc(Cl)cc(-c2ncc(F)cn2)c1` (single isomer, unassigned) [Compound 45], the IC50 in assay [1] was determined as 89 nM. The Emax in assay [2] was determined as 83%.

On to `C=CC(=O)N1CCN(C(C)=O)C[C@H]1c1cc(Cl)cc(-c2ncnc(N)n2)c1` (single isomer, unassigned) [Compound 74], for which the IC50 in assay [1] came to 22 nM. For the same molecule, the Emax in assay [2] was found to be 89%.

For the molecule `C=CC(=O)N1CC2(CC2)OCC1(C)c1cc(Cl)cc(-c2ccnc(N)n2)c1` (single isomer, unassigned) [Compound 161, 1-(6-(3-(2-aminopyrimidin-4-yl)-5-chlorophenyl)-6-methyl-4-oxa-7-azaspiro[2.5]octan-7-yl)prop-2-en-1-one], the IC50 in assay [1] turned out to be 870 nM. Also, the Emax in assay [2] was determined as 83%.

Consider `C=CC(=O)N1C[C@@H](C)OC[C@H]1c1cc(Cl)cc(-c2ccc(F)c(C(N)=O)c2)c1` (single isomer, unassigned) [Compound 179], for which, in assay [1], the IC50 came out at 190 nM. The Emax in assay [2] stood at 92%.

Turning to `C=CC(=O)N1CCOCC1c1cc(Cl)cc(-c2ccn3ccnc3c2)c1` (single isomer, unassigned) [Compound 43, 1-(3-(3-chloro-5-(imidazo[1,2-a]pyridin-7-yl)phenyl)morpholino)prop-2-en-1-one], the IC50 in assay [1] amounted to 25 nM. In assay [2], the Emax turned out to be 87%.

On to `C=CC(=O)N1CCOCC1c1cc(Cl)cc(-c2cnc3cncn3c2)c1` (single isomer, unassigned) [Compound 68, 1-(3-(3-chloro-5-(imidazo[1,5-a]pyrimidin-3-yl)phenyl)morpholino)prop-2-en-1-one], for which, in assay [1], the IC50 turned out to be 90 nM. Also, the Emax in assay [2] stood at 72%.

With `C=CC(=O)N1CCN(S(C)(=O)=O)C[C@H]1c1cc(Cl)cc(-c2ccnc(N3CCCC3=O)c2)c1` (single isomer, unassigned) [Compound 16], in assay [1], the IC50 was determined as 2.2 nM. Further, the Emax in assay [2] was found to be 62%.

In the case of `C=CC(=O)N1CCOCC1c1cc(Cl)cc(-c2cc(C(N)=O)n3ccnc3c2)c1` (single isomer, unassigned) [Compound 85, 7-(3-(4-acryloylmorpholin-3-yl)-5-chlorophenyl)imidazo[1,2-a]pyridine-5-carboxamide], in assay [1], the IC50 was found to be 36 nM. The Emax in assay [2] came out at 89%.

`C=CC(=O)N1CCOCC1c1cc(Cl)cc(-c2nccc(C(N)=O)n2)c1` (single isomer, unassigned) [Compound 77, 2-(3-(4-acryloylmorpholin-3-yl)-5-chlorophenyl)pyrimidine-4-carboxamide]: the IC50 in assay [1] came out at 86 nM. For the same molecule, the Emax in assay [2] was 82%.

In the case of `C=CC(=O)N1CC(C)(C)OC[C@H]1c1cc(Cl)cc(-c2ccc3nccnc3c2)c1` (single isomer, unassigned) [Compound 47], in assay [1], the IC50 worked out at 20 nM. Also, in assay [2], the Emax came out at 74%.

The values above are taken from patent US20260207621A1 (Vividion Therapeutics, Inc., priority 2022, published 2026).
